Source: publication PMC7613998, “Development of selective inhibitors of phosphatidylinositol 3-kinase C2α” (Nature Chemical Biology, 2022)

What was measured:
Test in all cases: biochemical
Parameters in all cases: SelectScreen Z'-LYTE purified kinase panel, per cent inhibition, mean of two points
TYK2 = TYK2 (Homo sapiens, UniProt P29597); conditions: (μM)=Km app
CHEK1 (CHK1) = target: T1, CHEK1 (CHK1) (Homo sapiens, UniProt O14757); conditions: (μM)=Km app
T1 sequence (O14757 1-476): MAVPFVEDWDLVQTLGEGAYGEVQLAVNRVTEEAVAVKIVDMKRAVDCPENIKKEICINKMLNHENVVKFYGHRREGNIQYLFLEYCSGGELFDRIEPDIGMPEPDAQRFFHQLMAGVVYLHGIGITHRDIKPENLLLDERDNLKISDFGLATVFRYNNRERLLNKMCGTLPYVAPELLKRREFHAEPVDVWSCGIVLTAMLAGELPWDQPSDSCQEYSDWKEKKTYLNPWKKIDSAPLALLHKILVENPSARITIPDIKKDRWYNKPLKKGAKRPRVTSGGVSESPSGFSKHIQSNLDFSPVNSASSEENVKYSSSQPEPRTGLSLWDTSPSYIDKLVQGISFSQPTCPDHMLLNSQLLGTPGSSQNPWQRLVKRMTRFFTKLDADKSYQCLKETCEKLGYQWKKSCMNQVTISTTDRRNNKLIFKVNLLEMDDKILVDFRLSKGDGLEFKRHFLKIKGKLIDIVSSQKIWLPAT

BTK = BTK (Homo sapiens, UniProt Q06187); conditions: (μM)=Km app
Chain of BTK (Q06187 whole entry): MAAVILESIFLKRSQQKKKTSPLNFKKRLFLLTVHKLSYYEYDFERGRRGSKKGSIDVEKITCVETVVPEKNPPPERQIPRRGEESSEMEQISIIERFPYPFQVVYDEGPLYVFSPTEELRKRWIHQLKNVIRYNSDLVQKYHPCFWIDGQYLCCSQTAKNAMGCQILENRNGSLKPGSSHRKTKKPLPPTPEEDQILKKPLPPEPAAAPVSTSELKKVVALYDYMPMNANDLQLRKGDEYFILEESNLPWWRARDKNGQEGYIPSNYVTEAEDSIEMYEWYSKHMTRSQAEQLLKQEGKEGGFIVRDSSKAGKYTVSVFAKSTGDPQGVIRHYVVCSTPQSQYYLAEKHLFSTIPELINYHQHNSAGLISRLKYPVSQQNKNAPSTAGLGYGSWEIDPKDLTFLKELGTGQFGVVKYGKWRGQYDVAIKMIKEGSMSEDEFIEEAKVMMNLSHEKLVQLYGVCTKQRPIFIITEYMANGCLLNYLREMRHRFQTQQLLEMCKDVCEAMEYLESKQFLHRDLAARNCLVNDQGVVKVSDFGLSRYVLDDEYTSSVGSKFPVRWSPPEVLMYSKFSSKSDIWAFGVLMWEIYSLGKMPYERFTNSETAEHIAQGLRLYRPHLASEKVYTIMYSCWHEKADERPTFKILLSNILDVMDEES

MKNK1 (MNK1) = MKNK1 (MNK1) (Homo sapiens, UniProt Q9BUB5); conditions: (μM)=Km app
Chain of MKNK1 (MNK1) (Q9BUB5 whole entry): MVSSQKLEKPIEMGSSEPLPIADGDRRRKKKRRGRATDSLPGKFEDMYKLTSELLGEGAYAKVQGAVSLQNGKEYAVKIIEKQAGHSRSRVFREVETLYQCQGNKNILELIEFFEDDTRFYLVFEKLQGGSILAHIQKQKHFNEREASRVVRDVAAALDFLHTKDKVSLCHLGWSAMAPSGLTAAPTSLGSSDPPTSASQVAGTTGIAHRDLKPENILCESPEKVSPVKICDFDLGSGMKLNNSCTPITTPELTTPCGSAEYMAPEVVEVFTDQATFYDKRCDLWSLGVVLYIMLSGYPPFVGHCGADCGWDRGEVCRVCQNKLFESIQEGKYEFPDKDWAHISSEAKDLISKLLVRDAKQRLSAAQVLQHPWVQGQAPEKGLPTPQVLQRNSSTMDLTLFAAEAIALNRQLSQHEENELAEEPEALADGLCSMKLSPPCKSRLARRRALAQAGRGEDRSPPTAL

ABL1 = ABL1 (Homo sapiens, UniProt P00519); conditions: (μM)=Km app
Chain of ABL1 (P00519 whole entry): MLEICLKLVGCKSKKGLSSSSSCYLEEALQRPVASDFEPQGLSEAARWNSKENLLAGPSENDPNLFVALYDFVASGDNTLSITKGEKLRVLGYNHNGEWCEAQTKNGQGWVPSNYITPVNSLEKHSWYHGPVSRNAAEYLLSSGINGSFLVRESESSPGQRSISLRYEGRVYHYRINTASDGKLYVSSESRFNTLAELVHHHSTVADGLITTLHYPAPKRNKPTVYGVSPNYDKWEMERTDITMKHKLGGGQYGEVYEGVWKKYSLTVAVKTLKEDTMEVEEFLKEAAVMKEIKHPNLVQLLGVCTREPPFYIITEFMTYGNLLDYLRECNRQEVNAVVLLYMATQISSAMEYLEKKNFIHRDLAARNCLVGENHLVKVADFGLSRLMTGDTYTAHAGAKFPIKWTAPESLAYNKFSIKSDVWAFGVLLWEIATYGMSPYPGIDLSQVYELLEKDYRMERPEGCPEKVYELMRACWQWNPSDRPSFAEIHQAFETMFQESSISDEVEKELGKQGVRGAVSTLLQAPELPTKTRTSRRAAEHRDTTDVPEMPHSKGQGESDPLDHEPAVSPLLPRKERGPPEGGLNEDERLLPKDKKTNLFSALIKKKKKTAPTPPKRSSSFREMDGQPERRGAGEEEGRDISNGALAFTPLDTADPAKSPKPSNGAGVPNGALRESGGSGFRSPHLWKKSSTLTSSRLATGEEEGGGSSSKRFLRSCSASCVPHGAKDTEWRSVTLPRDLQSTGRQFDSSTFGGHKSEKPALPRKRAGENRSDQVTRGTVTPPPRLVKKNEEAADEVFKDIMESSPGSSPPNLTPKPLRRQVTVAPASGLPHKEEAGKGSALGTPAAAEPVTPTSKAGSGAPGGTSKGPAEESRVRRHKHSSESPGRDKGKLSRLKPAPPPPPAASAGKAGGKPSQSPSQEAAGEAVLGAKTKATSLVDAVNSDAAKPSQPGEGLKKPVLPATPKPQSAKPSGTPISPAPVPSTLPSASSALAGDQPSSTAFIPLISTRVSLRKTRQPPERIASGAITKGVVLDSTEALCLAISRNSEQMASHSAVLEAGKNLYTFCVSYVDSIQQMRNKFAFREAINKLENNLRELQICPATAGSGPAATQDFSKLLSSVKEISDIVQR

EGFR (ErbB1) = EGFR (ErbB1) (Homo sapiens, UniProt P00533); conditions: (μM)=Km app
PIM2 = PIM2 (Homo sapiens, UniProt Q9P1W9); conditions: (μM)=Km app
MAPK14 (p38 alpha) = MAPK14 (p38 alpha) (Homo sapiens, UniProt Q16539); conditions: (μM)=100
Chain of MAPK14 (p38 alpha) (Q16539 whole entry): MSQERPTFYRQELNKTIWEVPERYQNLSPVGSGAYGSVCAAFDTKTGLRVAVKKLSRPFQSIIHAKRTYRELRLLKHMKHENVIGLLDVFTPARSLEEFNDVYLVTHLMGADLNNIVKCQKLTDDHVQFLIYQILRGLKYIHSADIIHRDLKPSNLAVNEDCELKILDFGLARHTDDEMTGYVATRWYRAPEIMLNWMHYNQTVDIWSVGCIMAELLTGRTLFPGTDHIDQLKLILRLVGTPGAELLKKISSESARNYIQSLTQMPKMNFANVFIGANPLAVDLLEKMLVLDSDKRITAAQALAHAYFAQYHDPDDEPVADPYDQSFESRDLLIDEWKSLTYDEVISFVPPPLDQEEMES

FGFR3 = FGFR3 (Homo sapiens, UniProt P22607); conditions: (μM)=Km app
Chain of FGFR3 (P22607 whole entry): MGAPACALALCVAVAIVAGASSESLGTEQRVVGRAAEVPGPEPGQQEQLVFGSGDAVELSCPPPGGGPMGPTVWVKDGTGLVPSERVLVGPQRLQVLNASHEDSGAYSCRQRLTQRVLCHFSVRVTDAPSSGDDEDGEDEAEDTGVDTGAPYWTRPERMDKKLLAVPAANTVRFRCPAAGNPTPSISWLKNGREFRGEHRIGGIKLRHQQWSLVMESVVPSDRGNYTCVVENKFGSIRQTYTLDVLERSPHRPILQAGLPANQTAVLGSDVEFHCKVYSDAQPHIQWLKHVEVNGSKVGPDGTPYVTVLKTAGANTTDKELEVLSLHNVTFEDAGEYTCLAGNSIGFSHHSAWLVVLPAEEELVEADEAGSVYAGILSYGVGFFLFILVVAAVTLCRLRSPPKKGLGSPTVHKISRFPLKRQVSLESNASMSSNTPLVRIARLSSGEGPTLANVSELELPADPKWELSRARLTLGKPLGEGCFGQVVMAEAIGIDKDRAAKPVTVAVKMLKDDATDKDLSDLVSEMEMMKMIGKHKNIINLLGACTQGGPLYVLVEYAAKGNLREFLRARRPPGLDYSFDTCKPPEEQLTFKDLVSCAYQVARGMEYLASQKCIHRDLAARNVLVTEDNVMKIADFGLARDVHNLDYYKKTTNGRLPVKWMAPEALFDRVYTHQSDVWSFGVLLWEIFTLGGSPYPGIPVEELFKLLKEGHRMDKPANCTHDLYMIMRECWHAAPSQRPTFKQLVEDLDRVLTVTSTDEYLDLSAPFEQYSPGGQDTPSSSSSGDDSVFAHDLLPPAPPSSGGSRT

AXL = target: T2, AXL (Homo sapiens, UniProt P30530); conditions: (μM)=Km app
T2 sequence (P30530 1-894): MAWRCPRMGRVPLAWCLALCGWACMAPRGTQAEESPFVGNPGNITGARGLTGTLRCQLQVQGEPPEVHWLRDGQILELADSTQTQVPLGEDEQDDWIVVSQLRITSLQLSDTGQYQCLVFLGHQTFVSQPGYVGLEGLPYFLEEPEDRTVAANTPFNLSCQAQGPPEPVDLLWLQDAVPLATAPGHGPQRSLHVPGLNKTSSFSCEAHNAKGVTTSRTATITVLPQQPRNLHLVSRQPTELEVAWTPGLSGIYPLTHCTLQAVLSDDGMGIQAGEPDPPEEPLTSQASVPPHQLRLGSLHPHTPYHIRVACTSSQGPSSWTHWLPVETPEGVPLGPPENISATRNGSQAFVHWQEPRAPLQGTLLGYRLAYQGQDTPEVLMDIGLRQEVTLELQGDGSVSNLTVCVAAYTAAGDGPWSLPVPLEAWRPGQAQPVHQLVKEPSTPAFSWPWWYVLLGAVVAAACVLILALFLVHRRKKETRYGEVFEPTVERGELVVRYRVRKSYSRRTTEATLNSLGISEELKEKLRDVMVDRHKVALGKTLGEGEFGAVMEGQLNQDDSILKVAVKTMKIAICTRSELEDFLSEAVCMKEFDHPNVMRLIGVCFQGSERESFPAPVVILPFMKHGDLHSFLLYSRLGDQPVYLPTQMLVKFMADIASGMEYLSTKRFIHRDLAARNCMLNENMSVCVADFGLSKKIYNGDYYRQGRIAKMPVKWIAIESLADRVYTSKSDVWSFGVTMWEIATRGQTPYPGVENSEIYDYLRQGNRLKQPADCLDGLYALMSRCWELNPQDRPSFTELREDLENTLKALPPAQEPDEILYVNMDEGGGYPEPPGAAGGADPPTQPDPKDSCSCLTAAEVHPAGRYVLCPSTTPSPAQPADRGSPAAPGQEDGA

JAK2 = JAK2 (Homo sapiens, UniProt O60674); conditions: (μM)=Km app
Chain of JAK2 (O60674 whole entry): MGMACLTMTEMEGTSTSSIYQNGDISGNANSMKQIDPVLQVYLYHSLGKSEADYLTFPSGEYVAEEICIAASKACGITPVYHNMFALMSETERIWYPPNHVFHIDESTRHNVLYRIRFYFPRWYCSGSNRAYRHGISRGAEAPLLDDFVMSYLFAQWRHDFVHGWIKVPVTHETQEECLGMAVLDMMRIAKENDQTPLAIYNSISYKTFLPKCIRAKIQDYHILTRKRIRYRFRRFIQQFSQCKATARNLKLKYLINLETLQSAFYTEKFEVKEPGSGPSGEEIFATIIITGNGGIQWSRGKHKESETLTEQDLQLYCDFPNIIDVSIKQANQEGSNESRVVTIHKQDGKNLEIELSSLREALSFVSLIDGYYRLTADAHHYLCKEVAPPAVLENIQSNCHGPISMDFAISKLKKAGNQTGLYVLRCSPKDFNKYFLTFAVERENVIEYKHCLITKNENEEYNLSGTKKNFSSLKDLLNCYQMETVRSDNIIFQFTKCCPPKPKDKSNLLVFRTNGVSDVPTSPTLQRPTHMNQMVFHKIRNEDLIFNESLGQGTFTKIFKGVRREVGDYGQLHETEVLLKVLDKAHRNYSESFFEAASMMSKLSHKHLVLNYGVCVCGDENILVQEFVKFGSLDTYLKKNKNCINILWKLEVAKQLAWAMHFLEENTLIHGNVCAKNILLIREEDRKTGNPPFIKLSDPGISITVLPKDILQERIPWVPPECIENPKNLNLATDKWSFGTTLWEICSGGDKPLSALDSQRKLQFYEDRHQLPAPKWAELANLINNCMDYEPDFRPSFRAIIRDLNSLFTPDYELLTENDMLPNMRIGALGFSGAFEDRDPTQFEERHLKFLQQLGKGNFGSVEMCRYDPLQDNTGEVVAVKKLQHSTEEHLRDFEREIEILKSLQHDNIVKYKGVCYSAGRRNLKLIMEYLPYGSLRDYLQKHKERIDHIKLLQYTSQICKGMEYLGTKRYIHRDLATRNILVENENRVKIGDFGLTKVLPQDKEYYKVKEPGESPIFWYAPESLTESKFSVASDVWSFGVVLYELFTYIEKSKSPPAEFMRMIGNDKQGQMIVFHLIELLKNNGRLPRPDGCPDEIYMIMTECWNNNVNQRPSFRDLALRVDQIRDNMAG

AKT1 (PKB alpha) = AKT1 (PKB alpha) (Homo sapiens, UniProt P31749); conditions: (μM)=Km app
Chain of AKT1 (PKB alpha) (P31749 whole entry): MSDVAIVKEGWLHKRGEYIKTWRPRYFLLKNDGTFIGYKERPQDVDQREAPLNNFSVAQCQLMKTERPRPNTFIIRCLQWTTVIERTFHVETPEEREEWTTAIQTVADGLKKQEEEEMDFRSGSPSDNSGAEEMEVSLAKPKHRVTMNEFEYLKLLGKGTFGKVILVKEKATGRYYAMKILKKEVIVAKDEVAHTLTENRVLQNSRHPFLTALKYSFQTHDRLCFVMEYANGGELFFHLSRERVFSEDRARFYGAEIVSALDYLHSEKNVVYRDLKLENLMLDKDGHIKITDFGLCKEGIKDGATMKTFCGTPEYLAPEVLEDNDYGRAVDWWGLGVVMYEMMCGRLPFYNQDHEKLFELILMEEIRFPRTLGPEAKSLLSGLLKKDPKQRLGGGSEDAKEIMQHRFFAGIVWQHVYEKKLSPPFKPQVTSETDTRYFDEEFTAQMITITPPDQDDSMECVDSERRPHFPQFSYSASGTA

inhibition at 1 µM (TYK2) [%] | inhibition at 3 µM (TYK2) [%] | inhibition at 10 µM (TYK2) [%] | inhibition at 1 µM (CHEK1 (CHK1)) [%] | inhibition at 3 µM (CHEK1 (CHK1)) [%] | inhibition at 10 µM (CHEK1 (CHK1)) [%] | inhibition at 1 µM (BTK) [%] | inhibition at 3 µM (BTK) [%] | inhibition at 10 µM (BTK) [%] | inhibition at 1 µM (MKNK1 (MNK1)) [%] | inhibition at 3 µM (MKNK1 (MNK1)) [%] | inhibition at 10 µM (MKNK1 (MNK1)) [%] | inhibition at 1 µM (ABL1) [%] | inhibition at 3 µM (ABL1) [%] | inhibition at 10 µM (ABL1) [%] | inhibition at 1 µM (EGFR (ErbB1)) [%] | inhibition at 3 µM (EGFR (ErbB1)) [%] | inhibition at 10 µM (EGFR (ErbB1)) [%] | inhibition at 1 µM (PIM2) [%] | inhibition at 3 µM (PIM2) [%] | SMILES | also measured
3.78 | -2.18 | 4.5 | -7.7 | -2.83 | -11.2 | 3.1 | 6.59 | 3.91 | -3.26 | -7.92 | 0.613 | 1.91 | 4.06 | 4 | -2.95 | 6.63 | 0.555 | -0.888 | -5.98 | CS(=O)(=O)Nc1cccc(-c2csc(NC(=O)CSc3nc4nccnc4c(=O)n3CCc3ccccc3)n2)c1 [compound 3, PITCOIN3] | inhibition at 10 µM (PIM2): -4.75%; inhibition at 1 µM (MAPK14 (p38 alpha)): 1.55%; inhibition at 3 µM (MAPK14 (p38 alpha)): 6.76%; inhibition at 10 µM (MAPK14 (p38 alpha)): 2.67%; inhibition at 1 µM (FGFR3): -8.51%; inhibition at 3 µM (FGFR3): 0.972%; inhibition at 10 µM (FGFR3): 8.3%; inhibition at 1 µM (AXL): -4.95%; inhibition at 3 µM (AXL): -1.87%; inhibition at 10 µM (AXL): -3.45%; inhibition at 1 µM (JAK2): -4.04%; inhibition at 3 µM (JAK2): -2.51%; inhibition at 10 µM (JAK2): -3.7%; inhibition at 1 µM (AKT1 (PKB alpha)): -1.18%; inhibition at 3 µM (AKT1 (PKB alpha)): 7.49%; inhibition at 10 µM (AKT1 (PKB alpha)): 3.66%
-4.9 | -7.09 | -1.29 | -13.5 | -11.6 | -3.01 | 6.72 | 3.08 | 2.73 | -10.5 | -9.2 | -14.3 | 2.07 | 2.45 | 1.9 | 2.09 | 1.39 | -0.671 | -5.29 | -3.77 | O=C(CSc1nc2nccnc2c(=O)n1CCc1ccccc1)Nc1nccs1 [compound 1, PITCOIN1] | inhibition at 10 µM (PIM2): -7.86%; inhibition at 1 µM (MAPK14 (p38 alpha)): -3.25%; inhibition at 3 µM (MAPK14 (p38 alpha)): -1.99%; inhibition at 10 µM (MAPK14 (p38 alpha)): -0.632%; inhibition at 1 µM (FGFR3): 7.72%; inhibition at 3 µM (FGFR3): -7.09%; inhibition at 10 µM (FGFR3): -15.3%; inhibition at 1 µM (AXL): -3.88%; inhibition at 3 µM (AXL): -5.8%; inhibition at 10 µM (AXL): -2.92%; inhibition at 1 µM (JAK2): 0.852%; inhibition at 3 µM (JAK2): -8.02%; inhibition at 10 µM (JAK2): -7.27%; inhibition at 1 µM (AKT1 (PKB alpha)): 1.93%; inhibition at 3 µM (AKT1 (PKB alpha)): 0.317%; inhibition at 10 µM (AKT1 (PKB alpha)): 0.625%
